Data as given in patent US7179926B2, “Aryloxyalkylamine NK-1/SSRI inhibitors” (Bristol-Myers Squibb Company, priority 2004, dated 2007).

Legend:
[1] = target: T1, neurokinin-1 (NK-1) receptor (Homo sapiens, UniProt P25103); assay: NK-1 Binding assay ([125I] Substance P competition, U373 cell membranes); settings: Bolton Hunter labeled [125I] Substance P, 30 min at 20° C.
T1 construct: endogenously expresses the neurokinin-1 (NK-1) receptor; endogenous in cells; host or cells: U373 human glioblastoma-astrocytoma cells (membranes)
Protocol: NK-1 Binding assay. U373 cells, a human glioblastoma-astrocytoma cell line that endogenously expresses the neurokinin-1 (NK-1) receptor, were grown in a monolayer culture at 37° C. in 5% CO2 and fed with Minimum Essential Medium (MEM) supplemented with 10% fetal bovine serum. Membranes were prepared as follows: Cells were washed twice with ice-cold phosphate-buffered saline (pH 7.4) and then incubated for 5–10 minutes with ice-cold 10 mM Tris buffer (pH 7.4) containing 5 mM EDTA. Cells were removed from plates, homogenized, and centrifuged at 32,000×g for 20 minutes. The resulting supernatant was discarded, and the pellet resuspended by homogenization in 50 mM Tris buffer (pH 7.4) containing 1 mM EDTA and centrifuged at 32,000×g for 20 minutes. The resulting supernatant was discarded, and the pellet resuspended by homogenization in NK-1 binding assay buffer (50 mM Tris-HCL (pH 7.4), 3 mM MnCl2, 200 μg/ml BSA, 5 μg/ml chymostatin, 40 μg/ml bacitracin and 4 μg/ml leupeptin).
On the day of an experiment the membrane preparation was thawed, homogenized and diluted with NK-1 binding assay buffer to the appropriate concentration. Competition binding assays were performed in 96 well plate format by incubating membranes (5–10 μg/well) with Bolton Hunter labeled [^125I] Substance P, at a concentration of […], and concentrations of drugs ranging from 10000 to 0.01 nM. Samples were incubated for 30 min at 20° C. then filtered through GF/B glass fiber filters (pretreated with 1% polyethyleneimine and 0.3% Triton X-100) using a Brandel cell harvester. The filters were then washed with 10 ml ice cold 50 mM Tris-HCL (pH 7.4) containing 3 mM MgCl2. Non-specific was defined in the presence of 2 μM L-733,060 (a non-peptide NK-1 antagonist). The amount of radioligand bound in the presence and absence of competitor was analyzed by plotting (−)log drug concentration versus the amount of radioligand specifically bound. The midpoint of the displacement curve (IC50, nM), signifies the potency. Ki values can be calculated using the method of Cheng and Prusoff (Cheng and Prusoff, Biochemical Pharmacology, Vol 22, pp. 3099–3108, Pergamon Press (1973)).

[2] = target: T2, human serotonin transporters (Homo sapiens, UniProt P31645); assay: Serotonin transporter binding assay ([3H]-citalopram competition, HEK-hSERT cell membranes); settings: 1 nM [3H]-citalopram, 1 hr at 25° C., read-out: SERT IC50
T2 construct: expressed in transfected cells
Protocol: Serotonin transporter binding assay. HEK-293 cells that stably express human serotonin transporters (HEK-hSERT cells) were grown at 37° C. in 5% CO2 as a monolayer in medium consisting of EMEM supplemented with 10% fetal bovine serum and G418 sulfate (500 μg/ml). To prepare membranes for radioligand binding experiments, cells were rinsed twice with phosphate-buffered saline (138 mM NaCl, 4.1 mM KCl, 5.1 mM Na2PO4, 1.5 mM KH2PO4, 11.1 mM glucose, pH 7.4). Cells were transferred from plates to polypropylene tubes (16×100 mm), centrifuged at 1,200×g for 5 min and were frozen at −80° C. until assay. Following centrifugation, pellets were resuspended by homogenization in buffer consisting of 50 mM Tris (pH 7.7 at 25° C.), 120 mM NaCl and 5 mM KCl and then centrifuged at 32,000×g for 10 min. Following centrifugation, supernatants were discarded and pellets were resuspended in buffer consisting of 50 mM Tris (pH 7.4 at 25° C.), 150 mM NaCl and 5 mM KCl. Membrane homogenates (200 μl/plate) were incubated with 1 nM [^3H]-citalopram (specific activity=85 Ci/mmol) and increasing concentrations of test compounds for 1 hr at 25° C. in a total volume of 250 μl. The assay buffer consisted of 50 mM Tris (pH 7.4 at 25° C.), 120 mM NaCl and 5 mM KCl (pH 7.4 with conc. HCl). Plates were incubated for 1 hr at 25° C., then filtered through 0.5% PEI treated Whatman GF/B filters using a Brandel cell harvester. Filters were washed three times with 3 ml of ice-cold tris wash buffer. Non-specific binding was defined with 10 μM fluoxetine. Amount of radioligand bound in the presence and absence of competitor was analyzed by plotting (−)log drug concentration versus the amount of radioligand specifically bound. The midpoint of the displacement curve (IC50, nM), signifies the potency. Ki values can be calculated using the method of Cheng and Prusoff (Cheng and Prusoff, Biochemical Pharmacology, Vol 22, pp. 3099–3108, Pergamon Press (1973)).

T1 sequence (P25103 whole entry): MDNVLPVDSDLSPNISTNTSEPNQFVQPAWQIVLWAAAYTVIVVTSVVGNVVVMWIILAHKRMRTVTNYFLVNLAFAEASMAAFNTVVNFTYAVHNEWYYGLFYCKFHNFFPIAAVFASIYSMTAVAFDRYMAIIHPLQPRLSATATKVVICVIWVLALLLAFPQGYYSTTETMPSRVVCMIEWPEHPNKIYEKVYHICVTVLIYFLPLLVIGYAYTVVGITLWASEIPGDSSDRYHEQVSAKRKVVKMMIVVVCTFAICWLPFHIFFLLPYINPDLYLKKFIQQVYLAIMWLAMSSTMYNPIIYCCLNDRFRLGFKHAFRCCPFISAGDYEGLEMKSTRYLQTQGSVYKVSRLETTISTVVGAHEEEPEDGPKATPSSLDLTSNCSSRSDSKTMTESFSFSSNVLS
T2 sequence (P31645 whole entry): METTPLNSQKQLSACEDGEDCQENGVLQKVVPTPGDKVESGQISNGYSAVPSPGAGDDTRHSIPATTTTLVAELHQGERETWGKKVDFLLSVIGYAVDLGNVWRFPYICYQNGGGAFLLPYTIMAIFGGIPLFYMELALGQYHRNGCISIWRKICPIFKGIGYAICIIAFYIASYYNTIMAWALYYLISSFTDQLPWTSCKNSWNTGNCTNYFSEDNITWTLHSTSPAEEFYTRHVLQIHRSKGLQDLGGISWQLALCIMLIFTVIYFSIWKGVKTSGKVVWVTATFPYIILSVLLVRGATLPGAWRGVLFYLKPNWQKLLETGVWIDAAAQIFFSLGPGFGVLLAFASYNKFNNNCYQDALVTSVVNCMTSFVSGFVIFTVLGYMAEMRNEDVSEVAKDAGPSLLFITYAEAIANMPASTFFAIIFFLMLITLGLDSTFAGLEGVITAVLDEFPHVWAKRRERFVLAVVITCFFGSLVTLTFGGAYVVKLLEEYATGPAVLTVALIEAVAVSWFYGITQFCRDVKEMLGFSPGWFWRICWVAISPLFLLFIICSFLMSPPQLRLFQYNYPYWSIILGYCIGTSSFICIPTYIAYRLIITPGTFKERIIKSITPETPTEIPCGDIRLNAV

## COc1ccc(C(O)(CCN)COCc2cc(C(F)(F)F)cc(C(F)(F)F)c2)c(C)c1 (centres unmarked) [Example 28, 1-(3,5-bis(trifluoromethyl)benzyloxy)-4-amino-2-(4-methoxy-2-methylphenyl)butan-2-ol]
[1]
  IC50: 100 to 300 nM
[2]
  IC50: 1 to 100 nM

## Cc1ccc(F)cc1C(O)(CCN)COCc1cc(C(F)(F)F)cc(C(F)(F)F)c1 (centres unmarked) [Example 29, 1-(3,5-bis(trifluoromethyl)benzyloxy)-4-amino-2-(5-fluoro-2-methylphenyl)butan-2-ol]
[1]
  IC50: 1 to 100 nM
[2]
  IC50: 1 to 100 nM

## Cc1ccc(C(O)(CCN)COCc2cc(C(F)(F)F)cc(C(F)(F)F)c2)c(C)c1 (centres unmarked) [Example 30, 1-(3,5-bis(trifluoromethyl)benzyloxy)-4-amino-2-(2,4-dimethylphenyl)butan-2-ol]
[1]
  IC50: 1 to 100 nM
[2]
  IC50: 1 to 100 nM

## Cc1cc(F)ccc1C(O)(CCN)COCc1cc(C(F)(F)F)cc(C(F)(F)F)c1 (centres unmarked) [Example 31, 1-(3,5-bis(trifluoromethyl)benzyloxy)-4-amino-2-(4-fluoro-2-methylphenyl)butan-2-ol]
[1]
  IC50: 1 to 100 nM
[2]
  IC50: 1 to 100 nM

## Cc1ccc(C(O)(CCN)COCc2cc(C(F)(F)F)cc(C(F)(F)F)c2)cc1C (centres unmarked) [Example 32, 1-(3,5-bis(trifluoromethyl)benzyloxy)-4-amino-2-(3,4-dimethylphenyl)butan-2-ol]
[1]
  IC50: 1 to 100 nM
[2]
  IC50: 1 to 100 nM

## Cc1ccc(C(O)(CCN)COCc2cc(C(F)(F)F)cc(C(F)(F)F)c2)cc1F (centres unmarked) [Example 33, 1-(3,5-bis(trifluoromethyl)benzyloxy)-4-amino-2-(3-fluoro-4-methylphenyl)butan-2-ol]
[1]
  IC50: 1 to 100 nM
[2]
  IC50: 1 to 100 nM

## NCCC(O)(COCc1cc(C(F)(F)F)cc(C(F)(F)F)c1)c1cccc2ccccc12 (centres unmarked) [Example 34, 1-(3,5-bis(trifluoromethyl)benzyloxy)-4-amino-2-(naphthalen-1-yl)butan-2-ol]
[1]
  IC50: 1 to 100 nM
[2]
  IC50: 1 to 100 nM

## CCCc1ccc(C(O)(CCN)COCc2cc(C(F)(F)F)cc(C(F)(F)F)c2)cc1 (centres unmarked) [Example 35, 1-(3,5-bis(trifluoromethyl)benzyloxy)-4-amino-2-(4-propylphenyl)butan-2-ol]
[1]
  IC50: > 300 nM
[2]
  IC50: 100 to 300 nM

## Cc1c(F)cccc1C(O)(CCN)COCc1cc(C(F)(F)F)cc(C(F)(F)F)c1 (centres unmarked) [Example 36, 1-(3,5-bis(trifluoromethyl)benzyloxy)-4-amino-2-(3-fluoro-2-methylphenyl)butan-2-ol]
[1]
  IC50: 1 to 100 nM
[2]
  IC50: 1 to 100 nM

## Cc1ccc(C)c(C(O)(CCN)COCc2cc(C(F)(F)F)cc(C(F)(F)F)c2)c1 (centres unmarked) [Example 37, 1-(3,5-bis(trifluoromethyl)benzyloxy)-4-amino-2-(2,5-dimethylphenyl)butan-2-ol]
[1]
  IC50: 1 to 100 nM
[2]
  IC50: 1 to 100 nM

## CCc1ccc(C(O)(CCN)COCc2cc(C(F)(F)F)cc(C(F)(F)F)c2)cc1 (centres unmarked) [Example 38, 1-(3,5-bis(trifluoromethyl)benzyloxy)-4-amino-2-(4-ethylphenyl)butan-2-ol]
[1]
  IC50: 100 to 300 nM
[2]
  IC50: 1 to 100 nM

## COc1ccc(C(O)(CCN)COCc2cc(C(F)(F)F)cc(C(F)(F)F)c2)cc1OC (centres unmarked) [Example 39, 1-(3,5-bis(trifluoromethyl)benzyloxy)-4-amino-2-(3,4-dimethoxyphenyl)butan-2-ol]
[1]
  IC50: 100 to 300 nM
[2]
  IC50: 1 to 100 nM

## Cc1cc(Cl)ccc1C(O)(CCN)COCc1cc(C(F)(F)F)cc(C(F)(F)F)c1 (centres unmarked) [Example 40, 1-(3,5-bis(trifluoromethyl)benzyloxy)-4-amino-2-(4-chloro-2-methylphenyl)butan-2-ol]
[1]
  IC50: 1 to 100 nM
[2]
  IC50: 1 to 100 nM

## NCCC(O)(COCc1cc(C(F)(F)F)cc(C(F)(F)F)c1)c1ccc(F)cc1 (centres unmarked) [Example 41, 1-(3,5-bis(trifluoromethyl)benzyloxy)-4-amino-2-(4-fluorophenyl)butan-2-ol]
[1]
  IC50: 1 to 100 nM
[2]
  IC50: 1 to 100 nM

## NCCC(O)(COCc1cc(C(F)(F)F)cc(C(F)(F)F)c1)c1ccc(Cl)cc1 (centres unmarked) [Example 42, 1-(3,5-bis(trifluoromethyl)benzyloxy)-4-amino-2-(4-chlorophenyl)butan-2-ol]
[1]
  IC50: 1 to 100 nM
[2]
  IC50: 1 to 100 nM

## Cc1ccccc1C(O)(CCN)COCc1cc(C(F)(F)F)cc(C(F)(F)F)c1 (centres unmarked) [Example 43, 1-(3,5-bis(trifluoromethyl)benzyloxy)-4-amino-2-o-tolylbutan-2-ol]
[1]
  IC50: 1 to 100 nM
[2]
  IC50: 1 to 100 nM

## NCCC(O)(COCc1cc(C(F)(F)F)cc(C(F)(F)F)c1)c1cccs1 (centres unmarked) [Example 44, 1-(3,5-bis(trifluoromethyl)benzyloxy)-4-amino-2-(thiophen-2-yl)butan-2-ol]
[1]
  IC50: 1 to 100 nM
[2]
  IC50: 1 to 100 nM

## COc1ccccc1C(O)(CCN)COCc1cc(C(F)(F)F)cc(C(F)(F)F)c1 (centres unmarked) [Example 45, 1-(3,5-bis(trifluoromethyl)benzyloxy)-4-amino-2-(2-methoxyphenyl)butan-2-ol]
[1]
  IC50: 1 to 100 nM
[2]
  IC50: 1 to 100 nM

## COc1ccc(C(O)(CCN)COCc2cc(C(F)(F)F)cc(C(F)(F)F)c2)c(OC)c1 (centres unmarked) [Example 46, 1-(3,5-bis(trifluoromethyl)benzyloxy)-4-amino-2-(2,4-dimethoxyphenyl)butan-2-ol]
[1]
  IC50: > 300 nM
[2]
  IC50: 1 to 100 nM

## NCCC(O)(COCc1ccccc1)c1ccccc1 (centres unmarked) [Example 47, 4-amino-1-(benzyloxy)-2-phenylbutan-2-ol]
[1]
  IC50: > 300 nM
[2]
  IC50: > 300 nM

## NCCC(O)(COCc1cccc(Br)c1)c1ccccc1 (centres unmarked) [Example 48, 1-(3-bromobenzyloxy)-4-amino-2-phenylbutan-2-ol]
[1]
  IC50: > 300 nM
[2]
  IC50: 1 to 100 nM

## NCCC(O)(COCc1ccc(OC(F)(F)F)cc1)c1ccccc1 (centres unmarked) [Example 49, 1-(4-(trifluoromethoxy)benzyloxy)-4-amino-2-phenylbutan-2-ol]
[1]
  IC50: > 300 nM
[2]
  IC50: > 300 nM

## NCCC(O)(COCc1ccccc1Cl)c1ccccc1 (centres unmarked) [Example 50, 1-(2-chlorobenzyloxy)-4-amino-2-phenylbutan-2-ol]
[1]
  IC50: > 300 nM
[2]
  IC50: 1 to 100 nM

## NCCC(O)(COCc1cc(F)cc(C(F)(F)F)c1)c1ccccc1 (centres unmarked) [Example 51, 1-(3-fluoro-5-(trifluoromethyl)benzyloxy)-4-amino-2-phenylbutan-2-ol]
[1]
  IC50: 1 to 100 nM
[2]
  IC50: 1 to 100 nM

## NCCC(O)(COCc1ccccc1Br)c1ccccc1 (centres unmarked) [Example 52, 1-(2-bromobenzyloxy)-4-amino-2-phenylbutan-2-ol]
[1]
  IC50: > 300 nM
[2]
  IC50: 1 to 100 nM

## Cc1cc(C)cc(COCC(O)(CCN)c2ccccc2)c1 (centres unmarked) [Example 53, 1-(3,5-dimethylbenzyloxy)-4-amino-2-phenylbutan-2-ol]
[1]
  IC50: 1 to 100 nM
[2]
  IC50: 1 to 100 nM

## NCCC(O)(COCc1ccccc1C(F)(F)F)c1ccccc1 (centres unmarked) [Example 54, 1-(2-(trifluoromethyl)benzyloxy)-4-amino-2-phenylbutan-2-ol]
[1]
  IC50: > 300 nM
[2]
  IC50: 1 to 100 nM

## NCCC(O)(COCc1cccc(C(F)(F)F)c1)c1ccccc1 (centres unmarked) [Example 55, 1-(3-(trifluoromethyl)benzyloxy)-4-amino-2-phenylbutan-2-ol]
[1]
  IC50: 100 to 300 nM
[2]
  IC50: 100 to 300 nM
